According to the CheMixHub viscosity set:

Experiment: xn = mol fraction of the nth substance listed

CCCCNCCCC + CC(C)(C)O
viscosity [mPa·s]
Settings | 298.15 K | 303.15 K | 308.15 K | 313.15 K | 318.15 K | 323.15 K
101 kPa, x2 = 0.1 | – | 0.8289 | 0.7649 | 0.7079 | 0.658 | 0.6131
101 kPa, x2 = 0.2 | – | 0.8953 | 0.8203 | 0.7551 | 0.6972 | 0.6454
101 kPa, x2 = 0.3 | – | 0.976 | 0.8884 | 0.8111 | 0.7456 | 0.6862
101 kPa, x2 = 0.4 | – | 1.082 | 0.9747 | 0.8862 | 0.8031 | 0.7331
101 kPa, x2 = 0.4999 | – | 1.217 | 1.085 | 0.9769 | 0.8802 | 0.7968
101 kPa, x2 = 0.55 | – | 1.302 | 1.153 | 1.027 | 0.92 | 0.829
101 kPa, x2 = 0.6001 | – | 1.391 | 1.228 | 1.087 | 0.9714 | 0.8676
101 kPa, x2 = 0.65 | – | 1.513 | 1.32 | 1.16 | 1.027 | 0.9126
101 kPa, x2 = 0.7 | – | 1.647 | 1.423 | 1.24 | 1.089 | 0.9614
101 kPa, x2 = 0.8001 | – | 2.011 | 1.696 | 1.441 | 1.245 | 1.08
101 kPa, x2 = 0.9 | – | 2.559 | 2.087 | 1.71 | 1.45 | 1.232
101 kPa, x2 = 0.95 | – | 2.937 | 2.352 | 1.91 | 1.583 | 1.333
101.33 kPa, x1 = 0.0672 | 3.548 | – | 2.271 | – | 1.565 | –
101.33 kPa, x1 = 0.0989 | 3.272 | – | 2.133 | – | 1.497 | –
101.33 kPa, x1 = 0.1393 | 2.953 | – | 1.97 | – | 1.409 | –
101.33 kPa, x1 = 0.1939 | 2.586 | – | 1.782 | – | 1.303 | –
101.33 kPa, x1 = 0.2674 | 2.165 | – | 1.559 | – | 1.172 | –
101.33 kPa, x1 = 0.3319 | 1.893 | – | 1.402 | – | 1.077 | –
101.33 kPa, x1 = 0.405 | 1.643 | – | 1.25 | – | 0.984 | –
101.33 kPa, x1 = 0.4915 | 1.419 | – | 1.109 | – | 0.895 | –
101.33 kPa, x1 = 0.5791 | 1.248 | – | 0.999 | – | 0.816 | –
101.33 kPa, x1 = 0.6466 | 1.143 | – | 0.93 | – | 0.769 | –
101.33 kPa, x1 = 0.6907 | 1.086 | – | 0.89 | – | 0.745 | –
101.33 kPa, x1 = 0.776 | 0.994 | – | 0.825 | – | 0.7 | –
101.33 kPa, x1 = 0.8387 | 0.932 | – | 0.783 | – | 0.671 | –
101.33 kPa, x1 = 0.8867 | 0.889 | – | 0.752 | – | 0.654 | –
101.33 kPa, x1 = 0.9129 | 0.872 | – | 0.742 | – | 0.642 | –
101.33 kPa, x1 = 0.9471 | 0.845 | – | 0.724 | – | 0.629 | –

COCCO + CCCO
Settings | viscosity [mPa·s]
298.15 K, 100 kPa, x1 = 0.1005 | 1.79
298.15 K, 100 kPa, x1 = 0.2016 | 1.68
298.15 K, 100 kPa, x1 = 0.3013 | 1.61
298.15 K, 100 kPa, x1 = 0.4012 | 1.56
298.15 K, 100 kPa, x1 = 0.5013 | 1.53
298.15 K, 100 kPa, x1 = 0.6005 | 1.52
298.15 K, 100 kPa, x1 = 0.7008 | 1.52
298.15 K, 100 kPa, x1 = 0.8003 | 1.52
298.15 K, 100 kPa, x1 = 0.9001 | 1.54
298.15 K, 101 kPa, x1 = 0.08067 | 1.901
298.15 K, 101 kPa, x1 = 0.1649 | 1.776
298.15 K, 101 kPa, x1 = 0.2529 | 1.692
298.15 K, 101 kPa, x1 = 0.3449 | 1.65
298.15 K, 101 kPa, x1 = 0.4413 | 1.624
298.15 K, 101 kPa, x1 = 0.5423 | 1.601
298.15 K, 101 kPa, x1 = 0.6482 | 1.59
298.15 K, 101 kPa, x1 = 0.7596 | 1.58
298.15 K, 101 kPa, x1 = 0.8767 | 1.571
298.15 K, 101.33 kPa, x1 = 0.0072 | 1.938
298.15 K, 101.33 kPa, x1 = 0.0141 | 1.926
298.15 K, 101.33 kPa, x1 = 0.0297 | 1.898
298.15 K, 101.33 kPa, x1 = 0.0471 | 1.867
298.15 K, 101.33 kPa, x1 = 0.062 | 1.844
308.15 K, 101 kPa, x1 = 0.08067 | 1.34
308.15 K, 101 kPa, x1 = 0.1014 | 1.435
308.15 K, 101 kPa, x1 = 0.1502 | 1.402
308.15 K, 101 kPa, x1 = 0.1649 | 1.264
308.15 K, 101 kPa, x1 = 0.2508 | 1.351
308.15 K, 101 kPa, x1 = 0.2529 | 1.249
308.15 K, 101 kPa, x1 = 0.3049 | 1.331
308.15 K, 101 kPa, x1 = 0.3449 | 1.227
308.15 K, 101 kPa, x1 = 0.3667 | 1.301
308.15 K, 101 kPa, x1 = 0.4257 | 1.303
308.15 K, 101 kPa, x1 = 0.4413 | 1.206
308.15 K, 101 kPa, x1 = 0.4838 | 1.28
308.15 K, 101 kPa, x1 = 0.5161 | 1.278
308.15 K, 101 kPa, x1 = 0.5378 | 1.276
308.15 K, 101 kPa, x1 = 0.5423 | 1.179
308.15 K, 101 kPa, x1 = 0.5647 | 1.279
308.15 K, 101 kPa, x1 = 0.6129 | 1.27
308.15 K, 101 kPa, x1 = 0.6482 | 1.154
308.15 K, 101 kPa, x1 = 0.67 | 1.252
308.15 K, 101 kPa, x1 = 0.7387 | 1.25
308.15 K, 101 kPa, x1 = 0.7596 | 1.131
308.15 K, 101 kPa, x1 = 0.7685 | 1.251
308.15 K, 101 kPa, x1 = 0.8213 | 1.251
308.15 K, 101 kPa, x1 = 0.8767 | 1.125
308.15 K, 101 kPa, x1 = 0.8898 | 1.253
308.15 K, 101 kPa, x1 = 0.9239 | 1.253
308.15 K, 101 kPa, x1 = 0.9491 | 1.26
308.15 K, 101 kPa, x1 = 0.9574 | 1.264
308.15 K, 101 kPa, x1 = 0.9686 | 1.277
308.15 K, 101 kPa, x2 = 0.0129 | 1.288
308.15 K, 101.33 kPa, x1 = 0.117 | 1.362
308.15 K, 101.33 kPa, x1 = 0.1795 | 1.319
308.15 K, 101.33 kPa, x1 = 0.3024 | 1.26
308.15 K, 101.33 kPa, x1 = 0.4526 | 1.207
308.15 K, 101.33 kPa, x1 = 0.5265 | 1.192
308.15 K, 101.33 kPa, x1 = 0.6439 | 1.185
308.15 K, 101.33 kPa, x1 = 0.7915 | 1.182
308.15 K, 101.33 kPa, x1 = 0.8693 | 1.174
313.15 K, 100 kPa, x1 = 0.1005 | 1.3
313.15 K, 100 kPa, x1 = 0.2016 | 1.23
313.15 K, 100 kPa, x1 = 0.3013 | 1.19
313.15 K, 100 kPa, x1 = 0.4012 | 1.16
313.15 K, 100 kPa, x1 = 0.5013 | 1.15
313.15 K, 100 kPa, x1 = 0.6005 | 1.14
313.15 K, 100 kPa, x1 = 0.7008 | 1.14
313.15 K, 100 kPa, x1 = 0.8003 | 1.15
313.15 K, 100 kPa, x1 = 0.9001 | 1.16
318.15 K, 101 kPa, x1 = 0.08067 | 1.099
318.15 K, 101 kPa, x1 = 0.1014 | 1.168
318.15 K, 101 kPa, x1 = 0.1502 | 1.142
318.15 K, 101 kPa, x1 = 0.1649 | 1.058
318.15 K, 101 kPa, x1 = 0.2508 | 1.089
318.15 K, 101 kPa, x1 = 0.2529 | 1.003
318.15 K, 101 kPa, x1 = 0.3049 | 1.079
318.15 K, 101 kPa, x1 = 0.3449 | 0.9764
318.15 K, 101 kPa, x1 = 0.3667 | 1.062
318.15 K, 101 kPa, x1 = 0.4257 | 1.052
318.15 K, 101 kPa, x1 = 0.4413 | 0.9794
318.15 K, 101 kPa, x1 = 0.4838 | 1.036
318.15 K, 101 kPa, x1 = 0.5161 | 1.029
318.15 K, 101 kPa, x1 = 0.5378 | 1.032
318.15 K, 101 kPa, x1 = 0.5423 | 0.9701
318.15 K, 101 kPa, x1 = 0.5647 | 1.028
318.15 K, 101 kPa, x1 = 0.6129 | 1.021
318.15 K, 101 kPa, x1 = 0.6482 | 0.9645
318.15 K, 101 kPa, x1 = 0.67 | 1.017
318.15 K, 101 kPa, x1 = 0.7387 | 1.018
318.15 K, 101 kPa, x1 = 0.7596 | 0.9589
318.15 K, 101 kPa, x1 = 0.7685 | 1.018
318.15 K, 101 kPa, x1 = 0.8213 | 1.016
318.15 K, 101 kPa, x1 = 0.8767 | 0.9552
318.15 K, 101 kPa, x1 = 0.8898 | 1.022
318.15 K, 101 kPa, x1 = 0.9239 | 1.025
318.15 K, 101 kPa, x1 = 0.9491 | 1.029
318.15 K, 101 kPa, x1 = 0.9574 | 1.028
318.15 K, 101 kPa, x1 = 0.9686 | 1.027
318.15 K, 101 kPa, x2 = 0.0129 | 1.029

N#C[S-].[Na+] + O
viscosity [mPa·s], 101.3 kPa
Settings | 293.15 K | 298.15 K | 303.15 K | 308.15 K | 313.15 K | 318.15 K | 323.15 K
x1 = 0.000641 | 1.046 | 0.938 | 0.839 | 0.759 | 0.689 | 0.629 | 0.577
x1 = 0.0118 | 1.037 | 0.943 | 0.835 | 0.771 | 0.699 | 0.638 | 0.589
x1 = 0.01737 | 1.104 | 0.985 | 0.887 | 0.805 | 0.732 | 0.672 | 0.618
x1 = 0.03707 | 1.261 | 1.128 | 1.016 | 0.92 | 0.834 | 0.766 | 0.706
x1 = 0.05053 | 1.367 | 1.221 | 1.124 | 1.015 | 0.919 | 0.834 | 0.776
x1 = 0.07571 | 1.549 | 1.387 | 1.25 | 1.132 | 1.03 | 0.945 | 0.87
x1 = 0.09639 | 1.81 | 1.613 | 1.442 | 1.308 | 1.19 | 1.091 | 1.003
x1 = 0.1127 | 2.193 | 1.939 | 1.732 | 1.56 | 1.408 | 1.295 | 1.18
x1 = 0.1223 | 2.333 | 2.061 | 1.828 | 1.653 | 1.493 | 1.356 | 1.248
x1 = 0.1239 | 2.378 | 2.099 | 1.873 | 1.679 | 1.52 | 1.384 | 1.27
x1 = 0.1334 | 2.641 | 2.321 | 2.06 | 1.842 | 1.668 | 1.505 | 1.374
x1 = 0.1416 | 2.851 | 2.501 | 2.214 | 1.977 | 1.779 | 1.609 | 1.468
x1 = 0.1532 | 3.196 | 2.792 | 2.461 | 2.191 | 1.963 | 1.777 | 1.619
x1 = 0.1683 | 3.749 | 3.258 | 2.858 | 2.527 | 2.259 | 2.049 | 1.837
x1 = 0.1834 | 4.424 | 3.802 | – | – | – | – | –
